Laboratory results as given in the NIST ThermoML archive (doi:10.1016/j.jct.2015.04.015).

Details: Gas, Rotating-body viscometer developed for low-density gases

O=C=O [carbon dioxide]
Details | viscosity [mPa·s]
253.15 K, 100.2 kPa | 0.01271
253.15 K, 153 kPa | 0.01271
253.15 K, 200.5 kPa | 0.01271
253.15 K, 300.5 kPa | 0.01271
253.15 K, 401.4 kPa | 0.01272
273.17 K, 100.4 kPa | 0.01371
273.17 K, 151.8 kPa | 0.0137
273.17 K, 203.4 kPa | 0.0137
273.17 K, 301.7 kPa | 0.01371
273.17 K, 399.4 kPa | 0.01371
273.17 K, 502.8 kPa | 0.01372
298.15 K, 100.8 kPa | 0.0149
298.15 K, 150.4 kPa | 0.01491
298.15 K, 201.6 kPa | 0.0149
298.15 K, 204.6 kPa | 0.0149
298.15 K, 303.2 kPa | 0.01491
298.15 K, 303.3 kPa | 0.01491
298.15 K, 400 kPa | 0.01493
298.15 K, 402.9 kPa | 0.01492
298.15 K, 498.5 kPa | 0.01493
298.15 K, 499.7 kPa | 0.01494
298.15 K, 502.8 kPa | 0.01494
298.15 K, 604.5 kPa | 0.01494
323.16 K, 100.8 kPa | 0.01608
323.16 K, 151.6 kPa | 0.01608
323.16 K, 200.9 kPa | 0.01609
323.16 K, 304.9 kPa | 0.0161
323.16 K, 400.7 kPa | 0.0161
323.16 K, 500.4 kPa | 0.01612
323.16 K, 598.7 kPa | 0.01613
373.16 K, 100.4 kPa | 0.0184
373.16 K, 151.4 kPa | 0.0184
373.16 K, 201.1 kPa | 0.0184
373.16 K, 296.8 kPa | 0.01842
373.16 K, 399.9 kPa | 0.01843
373.16 K, 604.9 kPa | 0.01846
373.16 K, 802.6 kPa | 0.01849
423.14 K, 100.2 kPa | 0.02065
423.14 K, 153.3 kPa | 0.02066
423.14 K, 204.1 kPa | 0.02065
423.14 K, 302 kPa | 0.02066
423.14 K, 397.6 kPa | 0.02068
423.14 K, 600.4 kPa | 0.0207
423.14 K, 800.8 kPa | 0.02073
423.14 K, 998.9 kPa | 0.02077
473.15 K, 153 kPa | 0.02275
473.15 K, 202.5 kPa | 0.02277
473.15 K, 403.5 kPa | 0.02278
473.15 K, 601.1 kPa | 0.02282
473.15 K, 803 kPa | 0.02284
473.15 K, 997.8 kPa | 0.02288
473.15 K, 1200.9 kPa | 0.0229
473.16 K, 100.1 kPa | 0.02275
